Results reported in patent US11352340B2, “Pyridine and pyridimine compounds as PI3K-gamma inhibitors” (Incyte Corporation, priority 2016, dated 2022).
Counter-ions that a name gives are not always drawn.

Assays:
[1] = tested on: Phosphorylated Ribosomal Protein S6 (RPS6) in THP-1 cells; assay: THP-1 RPS6 ELISA Assay; type: cell-based, Human; details: Homo sapiens, MCP-1 stimulated, phospho-RPS6 ELISA, read-out: THP p-RPS6 ELISA IC50
Description: Example A. THP-1 RPS6 ELISA Assay
To measure the Phosphorylated Ribosomal Protein S6 (RPS6) in cell lysates, THP-1 cells (Human Acute Monocytic Leukemia) are purchased from ATCC (Manassas, Va.) and maintained in RPMI with 10% FBS (Gibco/Life Technologies, Carlsbad, Calif.). For the assay, THP-1 cells are serum starved overnight in RPMI, then plated in RPMI (2×10^5 cells/well in 90 μL) into 96-well flat-bottom tissue culture treated plates (Corning, Corning, N.Y.), in the presence or absence of a concentration range of test compounds. Covered plates are incubated for 2 hours at 37° C., 5% CO2 then treated with or without 10 nM MCP-1 (MYBioSource, San Diego, Calif.) for 15 minutes at 37° C., 5% CO2. Plates are centrifuged at 1600 RPM and supernatants are removed. Cells are lysed in Lysis Buffer (Cell Signaling, Danvers, Mass.) with Protease Inhibitor (Calbiochem/EMD, Germany), PMSF (Sigma, St Louis Mo.), HALTS (Thermo Fisher, Rockford, Ill.) for 30 min on wet ice. Cell lysates are frozen at −80° C. before testing. The lysates are tested in the Human/Mouse/Rat Phospho-RPS6 ELISA (R&D Systems, Inc. Minn, Minn.). The plate is measured using a microplate reader (SpectraMax M5—Molecular Devices, LLC Sunnyvale, Calif.) set to 450 nm with a wavelength correction of 540. IC50 determination is performed by fitting the curve of inhibitor percent inhibition versus the log of the inhibitor concentration using the GraphPad Prism 5.0 software.

[2] = biological target: PI3Kγ (p110γ) Recombinant Human Protein (Homo sapiens (Human), UniProt P48736); assay: PI3K-γ Scintillation Proximity Assay; type: biochemical; details: read-out: PI3K-gamma SPA IC50
In short: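 Radiometric SPA: reaction at room temperature for 120 min using 2 μM ATP with [γ-33P]ATP tracer, 20 μM PIP2 substrate and 13 nM human PI3Kγ (MOPS pH 6.7, MgCl2, DTT, CHAPS; 2% DMSO). EDTA quench with WGA beads, scintillation count, and IC50 fit of percent-of-control activity.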

[3] = biological target: PI3Kδ (p110δ/p85α) Recombinant Human Protein (Homo sapiens (Human), UniProt O00329); assay: PI3Kδ Scintillation Proximity Assay; type: biochemical; details: read-out: PI3K-delta SPA IC50
In short: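 IC50 was fitted to percent solvent-control activity from SPA scintillation counts after WGA bead capture of 33P-labelled lipid product. Reaction: 120 min, room temperature, 3.4 nM p110δ/p85α, 20 μM PIP2, 2 μM ATP with tracer, MOPS pH 6.7 buffer containing MgCl2, DTT, CHAPS, 2% DMSO.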

Sequence of PI3Kδ (p110δ/p85α) Recombinant Human Protein (O00329 whole entry): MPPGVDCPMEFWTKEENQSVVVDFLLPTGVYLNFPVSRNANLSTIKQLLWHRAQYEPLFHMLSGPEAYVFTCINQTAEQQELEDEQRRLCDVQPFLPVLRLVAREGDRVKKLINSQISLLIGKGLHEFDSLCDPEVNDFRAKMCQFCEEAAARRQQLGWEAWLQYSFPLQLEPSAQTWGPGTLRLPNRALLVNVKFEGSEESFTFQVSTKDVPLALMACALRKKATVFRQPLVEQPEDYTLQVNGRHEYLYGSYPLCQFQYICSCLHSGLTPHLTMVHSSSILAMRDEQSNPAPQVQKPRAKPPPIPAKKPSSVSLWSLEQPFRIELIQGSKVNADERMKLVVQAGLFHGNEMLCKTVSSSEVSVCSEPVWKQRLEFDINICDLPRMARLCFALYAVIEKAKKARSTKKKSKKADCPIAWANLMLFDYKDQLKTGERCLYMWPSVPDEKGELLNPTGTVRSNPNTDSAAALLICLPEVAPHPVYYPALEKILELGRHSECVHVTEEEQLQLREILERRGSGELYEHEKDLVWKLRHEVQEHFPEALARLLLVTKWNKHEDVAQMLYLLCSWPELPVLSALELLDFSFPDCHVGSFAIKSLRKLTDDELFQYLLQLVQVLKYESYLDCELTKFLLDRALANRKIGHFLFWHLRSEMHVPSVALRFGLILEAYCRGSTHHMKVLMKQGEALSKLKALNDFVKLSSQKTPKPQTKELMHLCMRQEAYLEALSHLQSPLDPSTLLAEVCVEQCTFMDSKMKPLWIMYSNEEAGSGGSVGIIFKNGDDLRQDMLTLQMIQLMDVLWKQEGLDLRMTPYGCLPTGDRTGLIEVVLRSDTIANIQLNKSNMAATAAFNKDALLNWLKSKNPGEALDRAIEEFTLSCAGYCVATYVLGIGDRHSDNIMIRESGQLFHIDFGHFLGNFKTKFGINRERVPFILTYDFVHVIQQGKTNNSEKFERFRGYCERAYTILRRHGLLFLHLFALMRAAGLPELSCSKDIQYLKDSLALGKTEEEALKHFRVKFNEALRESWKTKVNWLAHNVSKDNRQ
Sequence of PI3Kδ (p110δ/p85α) Recombinant Human Protein (P27986 whole entry partner): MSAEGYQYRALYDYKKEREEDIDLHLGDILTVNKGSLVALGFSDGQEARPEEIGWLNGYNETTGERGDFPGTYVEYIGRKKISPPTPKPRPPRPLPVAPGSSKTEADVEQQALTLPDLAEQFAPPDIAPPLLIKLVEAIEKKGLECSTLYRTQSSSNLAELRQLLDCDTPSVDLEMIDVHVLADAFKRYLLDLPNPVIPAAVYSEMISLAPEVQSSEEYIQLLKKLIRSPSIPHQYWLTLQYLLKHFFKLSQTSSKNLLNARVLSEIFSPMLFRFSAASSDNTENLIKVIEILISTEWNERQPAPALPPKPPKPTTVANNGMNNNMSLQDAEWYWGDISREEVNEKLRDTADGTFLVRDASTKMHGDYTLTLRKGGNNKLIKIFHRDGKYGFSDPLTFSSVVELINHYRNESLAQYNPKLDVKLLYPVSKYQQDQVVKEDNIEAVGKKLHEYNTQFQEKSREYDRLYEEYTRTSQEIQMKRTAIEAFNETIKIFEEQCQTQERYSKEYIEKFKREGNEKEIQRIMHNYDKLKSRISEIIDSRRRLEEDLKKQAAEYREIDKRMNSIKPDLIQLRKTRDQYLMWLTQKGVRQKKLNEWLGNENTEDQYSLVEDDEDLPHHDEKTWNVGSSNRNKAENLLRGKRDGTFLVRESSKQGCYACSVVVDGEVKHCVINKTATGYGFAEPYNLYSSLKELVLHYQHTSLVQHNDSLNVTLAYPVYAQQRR
Sequence of PI3Kγ (p110γ) Recombinant Human Protein (P48736 whole entry): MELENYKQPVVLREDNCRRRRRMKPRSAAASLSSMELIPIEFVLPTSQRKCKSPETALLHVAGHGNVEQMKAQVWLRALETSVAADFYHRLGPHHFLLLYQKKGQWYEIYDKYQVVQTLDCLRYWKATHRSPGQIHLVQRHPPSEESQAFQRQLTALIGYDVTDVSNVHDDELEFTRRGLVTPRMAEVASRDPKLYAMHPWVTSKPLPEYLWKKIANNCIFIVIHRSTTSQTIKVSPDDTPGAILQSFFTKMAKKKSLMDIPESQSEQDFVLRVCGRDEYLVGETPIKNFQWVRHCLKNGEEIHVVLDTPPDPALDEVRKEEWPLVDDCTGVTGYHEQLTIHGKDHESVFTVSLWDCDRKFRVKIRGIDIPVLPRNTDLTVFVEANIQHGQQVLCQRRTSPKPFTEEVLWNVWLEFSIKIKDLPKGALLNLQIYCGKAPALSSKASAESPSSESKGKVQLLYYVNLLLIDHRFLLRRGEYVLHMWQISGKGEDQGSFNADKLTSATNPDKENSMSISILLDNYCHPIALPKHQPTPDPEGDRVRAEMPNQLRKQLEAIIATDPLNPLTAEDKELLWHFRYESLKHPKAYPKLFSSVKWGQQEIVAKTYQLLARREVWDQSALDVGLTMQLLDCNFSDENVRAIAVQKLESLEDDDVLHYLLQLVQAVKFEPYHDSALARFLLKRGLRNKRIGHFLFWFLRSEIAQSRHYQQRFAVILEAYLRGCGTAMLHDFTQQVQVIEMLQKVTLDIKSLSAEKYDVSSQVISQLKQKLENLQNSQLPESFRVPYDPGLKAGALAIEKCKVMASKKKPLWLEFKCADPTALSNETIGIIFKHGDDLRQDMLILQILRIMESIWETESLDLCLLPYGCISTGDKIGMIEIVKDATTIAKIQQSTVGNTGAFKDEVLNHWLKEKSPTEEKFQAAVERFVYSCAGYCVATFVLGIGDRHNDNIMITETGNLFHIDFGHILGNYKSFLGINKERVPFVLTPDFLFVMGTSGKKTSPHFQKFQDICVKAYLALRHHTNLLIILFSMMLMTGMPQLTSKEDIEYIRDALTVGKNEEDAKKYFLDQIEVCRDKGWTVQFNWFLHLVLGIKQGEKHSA

SMILES | IC50 [1] [nM] | IC50 [2] [nM] | IC50 [3] [nM]
Cc1[nH]c(-c2cc(-c3cncc(N4CCOCC4)c3)ccn2)nc1C(=O)NC1CCSCC1 [Example 281, 5-Methyl-2-(5-morpholin-4-yl-3,4′-bipyridin-2′-yl)-N-(tetrahydro-2H-thiopyran-4-yl)-1H-imidazole-4-carboxamide trifluoroacetate salt] | ≤ 300 | ≤ 50 | ≤ 50
COc1cncc(-c2ccnc(-c3ncc(-c4ccc(S(=O)(=O)N(C)C)cc4)[nH]3)c2)c1 [Example 83, 4-(2-(5-Methoxy-3,4′-bipyridin-2′-yl)-1H-imidazol-5-yl)-N,N-dimethylbenzenesulfonamide trifluoroacetate salt] | > 5000 | ≤ 50 | ≤ 50
c1cc(-c2cncc(N3CCOCC3)c2)cc(-c2ncc(C3CCC3)[nH]2)n1 [Example 103, 4-(2′-(5-Cyclobutyl-1H-imidazol-2-yl)-3,4′-bipyridin-5-yl)morpholine trifluoroacetate salt] | 1000 to 5000 | ≤ 100 | ≤ 50
Cc1[nH]c(-c2cc(-c3cncc(N4CCOCC4)c3)ccn2)nc1C(=O)N[C@@H]1CCOC1 [Example 270, 5-Methyl-2-(5-morpholin-4-yl-3,4′-bipyridin-2′-yl)-N-[(3R)-tetrahydrofuran-3-yl]-1H-imidazole-4-carboxamide trifluoroacetate salt] | 300 to 1000 | ≤ 50 | ≤ 50
Cc1nc(-c2cc(-c3cncc(C(=O)N4CCC(C)(O)C4)c3)ccn2)[nH]c1C (racemic) [Example 180, 1-{[2′-(4,5-Dimethyl-1H-imidazol-2-yl)-3,4′-bipyridin-5-yl]carbonyl}-3-methylpyrrolidin-3-ol trifluoroacetate salt] | 1000 to 5000 | ≤ 50 | ≤ 50
Cc1nc(-c2cc(-c3cncc(C(=O)N4CC(C#N)C4)c3)ccn2)[nH]c1C [Example 153, 1-(2′-(4,5-Dimethyl-1H-imidazol-2-yl)-3,4′-bipyridine-5-carbonyl)azetidine-3-carbonitrile trifluoroacetate salt] | ≤ 300 | ≤ 50 | ≤ 50
CCc1[nH]c(-c2cc(-c3cncc(N4CCOCC4)c3)ccn2)nc1C [Example 105, 4-(2′-(5-Ethyl-4-methyl-1H-imidazol-2-yl)-3,4′-bipyridin-5-yl)morpholine] | ≤ 300 | ≤ 100 | ≤ 100
Cc1[nH]c(-c2cc(-c3cncc(N4CCOCC4)c3)ccn2)nc1C(=O)N[C@H](C)c1ccccc1 [Example 274, 5-Methyl-2-(5-morpholin-4-yl-3,4′-bipyridin-2′-yl)-N-[(1R)-1-phenylethyl]-1H-imidazole-4-carboxamide trifluoroacetate salt] | 1000 to 5000 | ≤ 50 | ≤ 50
Cc1[nH]c(-c2cc(-c3cncc(N4CCOCC4)c3)ccn2)nc1C(=O)NC(C)(C)C [Example 266, N-(tert-Butyl)-5-methyl-2-(5-morpholin-4-yl-3,4′-bipyridin-2′-yl)-1H-imidazole-4-carboxamide] | ≤ 300 | ≤ 50 | ≤ 50
Cc1nc(-c2cc(-c3cncc(C(=O)NCc4ccccc4)c3)ccn2)[nH]c1C [Example 192, N-Benzyl-2′-(4,5-dimethyl-1H-imidazol-2-yl)-3,4′-bipyridine-5-carboxamide trifluoroacetate salt] | 1000 to 5000 | ≤ 100 | ≤ 100
Cc1nc(-c2cc(-c3cncc(C(=O)N4CC[C@@H](F)C4)c3)ccn2)[nH]c1C [Example 155, (R)-(2′-(4,5-Dimethyl-1H-imidazol-2-yl)-3,4′-bipyridin-5-yl)(3-fluoropyrrolidin-1-yl)methanone trifluoroacetate salt] | ≤ 300 | ≤ 50 | ≤ 50
Cc1[nH]c(-c2cc(-c3cncc(S(C)(=O)=O)c3)ccn2)nc1C(=O)NC1CCCC1 [Example 243, N-Cyclopentyl-5-methyl-2-[5-(methylsulfonyl)-3,4′-bipyridin-2′-yl]-1H-imidazole-4-carboxamide] | ≤ 300 | ≤ 50 | ≤ 50
COc1cncc(-c2ccnc(-c3ncc(C(C)C)[nH]3)c2)c1 [Example 84, 2′-(5-Isopropyl-1H-imidazol-2-yl)-5-methoxy-3,4′-bipyridine trifluoroacetate salt] | 1000 to 5000 | ≤ 100 | ≤ 500
c1cc(-c2cncc(N3CCOCC3)c2)cc(-c2ncc(C3CC3)[nH]2)n1 [Example 102, 4-(2′-(5-Cyclopropyl-1H-imidazol-2-yl)-3,4′-bipyridin-5-yl)morpholine trifluoroacetate salt] | 300 to 1000 | ≤ 100 | ≤ 50
CCNc1ncc(-c2cc(-c3cncc(OC)c3)ccn2)[nH]1 [Example 62, N-Ethyl-5-(5-methoxy-3,4′-bipyridin-2′-yl)-1H-imidazol-2-amine Trifluoroacetate Salt] | > 5000 | ≤ 100 | > 500
CS(=O)(=O)c1cncc(-c2ccnc(-c3ncc(C4CC4)[nH]3)c2)c1 [Example 112, 2′-(5-Cyclopropyl-1H-imidazol-2-yl)-5-(methylsulfonyl)-3,4′-bipyridine trifluoroacetate salt] | 300 to 1000 | ≤ 50 | ≤ 50
Cc1[nH]c(-c2cc(-c3cncc(N4CCOCC4)c3)ccn2)nc1C(=O)N[C@H]1CCOC1 [Example 271, 5-Methyl-2-(5-morpholin-4-yl-3,4′-bipyridin-2′-yl)-N-[(3S)-tetrahydrofuran-3-yl]-1H-imidazole-4-carboxamide trifluoroacetate salt] | 300 to 1000 | ≤ 50 | ≤ 50
O=S(=O)(C1CC1)n1cc(-c2ccnc(-c3ncc(-c4ccccc4)[nH]3)c2)cn1 [Example 46, 4-(1-(Cyclopropylsulfonyl)-1H-pyrazol-4-yl)-2-(5-phenyl-1H-imidazol-2-yl)pyridine trifluoroacetate salt] | > 5000 | ≤ 100 | ≤ 500
Cc1[nH]c(-c2cc(-c3cncc(N4CCOCC4)c3)ccn2)nc1C(=O)N1CC(C(F)(F)F)C1 [Example 262, 2′-(5-Methyl-4-{[3-(trifluoromethyl)azetidin-1-yl]carbonyl}-1H-imidazol-2-yl)-5-morpholin-4-yl-3,4′-bipyridine] | 300 to 1000 | ≤ 50 | ≤ 50
Cc1nc(-c2cc(-c3cncc(C(=O)NCC4CC4)c3)ccn2)[nH]c1C [Example 202, N-(Cyclopropylmethyl)-2′-(4,5-dimethyl-1H-imidazol-2-yl)-3,4′-bipyridine-5-carboxamide trifluoroacetate salt] | 300 to 1000 | ≤ 100 | ≤ 100
Cc1nc(-c2cc(-c3cncc(C(=O)N(C)CC4(CO)CC4)c3)ccn2)[nH]c1C [Example 205, 2′-(4,5-Dimethyl-1H-imidazol-2-yl)-N-{[1-(hydroxymethyl)cyclopropyl]methyl}-N-methyl-3,4′-bipyridine-5-carboxamide trifluoroacetate salt] | 300 to 1000 | ≤ 50 | ≤ 100
N#Cc1ccc(Cn2cc(-c3ccnc(-c4ncc(-c5ccccc5)[nH]4)c3)cn2)cc1 [Example 43, 4-((4-(2-(5-Phenyl-1H-imidazol-2-yl)pyridin-4-yl)-1H-pyrazol-1-yl)methyl)benzonitrile trifluoroacetate salt] | > 5000 | ≤ 500 | > 500
Cc1nc(-c2cc(-c3cncc(C(=O)N4CCC(c5cnccn5)C4)c3)ccn2)[nH]c1C (stereo not drawn) [Example 197, 2′-(4,5-Dimethyl-1H-imidazol-2-yl)-5-[(3-pyrazin-2-ylpyrrolidin-1-yl)carbonyl]-3,4′-bipyridine trifluoroacetate salt] | 300 to 1000 | ≤ 100 | ≤ 50
CCCCCNc1ncc(-c2cc(-c3cncc(OC)c3)ccn2)[nH]1 [Example 63, 5-(5-Methoxy-3,4′-bipyridin-2′-yl)-N-pentyl-1H-imidazol-2-amine trifluoroacetate salt] | > 5000 | ≤ 500 | > 500
